The results in this text go back to PubChem BioAssay (NCI).

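Test compounds were applied to cells in 96-well plates for 48 hours at 5 doses. At the GI50, growth is halved. TGI: concentration producing complete growth inhibition.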 A value given as a limit tells only on which side of the number the result lay.

Some test systems named below: SF-539 CNS; SNB-19 CNS; MCF7 breast; NCI-H460 lung; RXF 393 renal; HS 578T breast; MOLT-4 leukemia; MALME-3M melanoma; NCI/ADR-RES ovarian; RPMI-8226 leukemia.
What all share (assay): growth of human tumour cells (NCI), 48 h

As for `COc1cc(NC(C)CCCNC2CN3CCC2CC3)c2ncccc2c1` (stereo not given), the GI50 in the experiment on SF-539 CNS is 15.2 µM; with SNB-19 CNS, 15.8 µM; with MCF7 breast, 1.64 µM; with NCI-H460 lung it was 15.9 µM; in the experiment on RXF 393 renal it was 3.44 µM; in the experiment with HS 578T breast it was 14.8 µM. Further, the GI50 in the experiment on MOLT-4 leukemia is 12.8 µM; in the experiment on MALME-3M melanoma, 10 µM; with NCI/ADR-RES ovarian it was 24.6 µM. The TGI with SF-539 CNS was 30.5 µM; in the experiment with SNB-19 CNS, 32 µM; in the experiment with MCF7 breast it was 3.58 µM; in the experiment with NCI-H460 lung, 32.3 µM; in the experiment with RXF 393 renal it was 15.4 µM; in the experiment with HS 578T breast, 39.6 µM. Moreover, the results for the TGI with MOLT-4 leukemia, in the experiment with MALME-3M melanoma and in the experiment with NCI/ADR-RES ovarian were 31.8 µM, 24.3 µM and greater than 100 µM, respectively.
Regarding `Fc1ccc2c(c1)C1=NN(c3ccccc3)C(F)C1CO2` (stereo not given), the GI50 is 6.62 µM with SF-539 CNS; 26.6 µM in the experiment with SNB-19 CNS; 9.41 µM with MCF7 breast; 9.04 µM with RPMI-8226 leukemia; 10.5 µM with NCI-H460 lung; 7.33 µM in the experiment with RXF 393 renal. Further, the figures for the GI50 with HS 578T breast, with MOLT-4 leukemia and in the experiment on NCI/ADR-RES ovarian were 10.6 µM, greater than 50 µM and 7.57 µM, respectively. Besides, the TGI is 14.9 µM with SF-539 CNS; greater than 50 µM in the experiment with SNB-19 CNS; greater than 50 µM in the experiment on MCF7 breast; 33.4 µM with RPMI-8226 leukemia; greater than 50 µM with NCI-H460 lung; 41.4 µM in the experiment with RXF 393 renal. In addition, the TGI was 28.1 µM with HS 578T breast, greater than 50 µM in the experiment with MOLT-4 leukemia and 18.9 µM with NCI/ADR-RES ovarian.
As for `COc1cnc2c(c1)C(=O)c1c-2n(CCCn2ccnc2)c(=O)c2cc(F)ccc12`, the GI50 with SF-539 CNS is 0.0245 µM; in the experiment on SNB-19 CNS it was less than 0.01 µM; with RPMI-8226 leukemia, less than 0.01 µM; in the experiment on NCI-H460 lung, less than 0.01 µM; in the experiment on RXF 393 renal, 0.0309 µM; with HS 578T breast, 0.504 µM. Further, the GI50 in the experiment with MOLT-4 leukemia was less than 0.01 µM; in the experiment with MALME-3M melanoma, 0.193 µM; in the experiment with NCI/ADR-RES ovarian it was 0.0193 µM. The TGI in the experiment with SF-539 CNS was 0.195 µM; with SNB-19 CNS it was 11.4 µM; in the experiment with RPMI-8226 leukemia, 0.248 µM; in the experiment on NCI-H460 lung it was 0.133 µM; in the experiment on RXF 393 renal, 0.171 µM; with HS 578T breast it was greater than 100 µM. In addition, the TGI was 0.131 µM in the experiment with MOLT-4 leukemia, 0.619 µM in the experiment on MALME-3M melanoma and greater than 100 µM in the experiment on NCI/ADR-RES ovarian.
`COc1cc([C@@H]2OC[C@@H]3C(c4cc(OC)c5c(c4)OCO5)OC[C@@H]32)cc(OC)c1OC` (stereo not given in full): the TGI in the experiment on SF-539 CNS, in the experiment on SNB-19 CNS, in the experiment on MCF7 breast, in the experiment with RPMI-8226 leukemia, in the experiment with NCI-H460 lung and with HS 578T breast was greater than 100 µM in each case. In addition, the TGI with MOLT-4 leukemia and in the experiment on NCI/ADR-RES ovarian was greater than 100 µM throughout.
For the molecule `COc1cc2ccc(/C=C\[N+](=O)[O-])cc2cc1OC`, the TGI was 4.91 µM in the experiment with SF-539 CNS; 27.7 µM in the experiment with SNB-19 CNS; 7.06 µM with MCF7 breast; 5.44 µM with RPMI-8226 leukemia; greater than 56.4 µM in the experiment with NCI-H460 lung; 3.51 µM in the experiment with RXF 393 renal. Besides, the TGI with HS 578T breast stood at 37.8 µM; in the experiment with MOLT-4 leukemia it was 19.1 µM; with NCI/ADR-RES ovarian it was 17.2 µM.
Consider `CC(=O)OCC1OC(n2cnc(C(N)=S)c2N)C(OC(C)=O)C1OC(C)=O` (stereo not given), for which the TGI in the experiment on SF-539 CNS, in the experiment with SNB-19 CNS, in the experiment on MCF7 breast, in the experiment with RPMI-8226 leukemia, in the experiment with NCI-H460 lung and in the experiment with HS 578T breast was greater than 100 µM throughout. In addition, the TGI in the experiment on MOLT-4 leukemia, in the experiment on MALME-3M melanoma and with NCI/ADR-RES ovarian was greater than 100 µM each time.
For the molecule `COc1cc(C(=O)O[C@H](C(=O)NCCCCCNC(=O)[C@@H](OC(=O)c2cc(OC)cc3c(C)cccc23)[C@]2(C)CO2)[C@]2(C)CO2)c2cccc(C)c2c1`, the GI50 with SF-539 CNS is 0.119 µM; with SNB-19 CNS it was 0.93 µM; in the experiment with MCF7 breast it was less than 0.0123 µM; with RPMI-8226 leukemia it was 1.82 µM; with RXF 393 renal, less than 0.01 µM; in the experiment on HS 578T breast, 0.943 µM. For the same molecule, the GI50 with MOLT-4 leukemia was less than 0.01 µM; in the experiment with NCI/ADR-RES ovarian it was 0.165 µM. Besides, the TGI is 0.587 µM in the experiment with SF-539 CNS; greater than 20.4 µM in the experiment with SNB-19 CNS; 10.2 µM in the experiment on RPMI-8226 leukemia; 0.675 µM in the experiment on NCI-H460 lung; 0.025 µM with RXF 393 renal; 6.51 µM with HS 578T breast. The TGI with MOLT-4 leukemia is greater than 100 µM; in the experiment on NCI/ADR-RES ovarian, 0.584 µM.
As to `CCC(C)(CC(C)(C)C(=O)NCC(=O)NC(Cc1ccccc1)C(=O)NC(Cc1ccccc1)C(=O)NCC(=O)NC1CC(OC2CC(O)(C(=O)CO)Cc3c(O)c4c(c(O)c32)C(=O)c2c(OC)cccc2C4=O)OC(C)C1O)C(=O)NCC(C)O` (stereo not given), the GI50 is 53 mg/L in the experiment with SF-539 CNS; 69.2 mg/L in the experiment on SNB-19 CNS; 22 mg/L in the experiment on MCF7 breast; 36 mg/L with RPMI-8226 leukemia; greater than 150 mg/L with RXF 393 renal; greater than 150 mg/L with HS 578T breast. The results for the GI50 with MOLT-4 leukemia and with NCI/ADR-RES ovarian were 7.84 mg/L and greater than 150 mg/L, respectively. In addition, the TGI in the experiment with SF-539 CNS, in the experiment on SNB-19 CNS, in the experiment on MCF7 breast, in the experiment with RPMI-8226 leukemia, in the experiment on RXF 393 renal and in the experiment on HS 578T breast was greater than 150 mg/L in each case. For the same molecule, the TGI in the experiment on MOLT-4 leukemia is 96.6 mg/L; in the experiment on NCI/ADR-RES ovarian it was greater than 150 mg/L.
For `C=C1C(=O)O[C@H]2[C@H]1CC/C(COC(=O)NCc1cn(C)c3ccccc13)=C\CC[C@@]1(C)O[C@@H]21`, the GI50 was 1.37 µM with SF-539 CNS; 2.84 µM in the experiment with SNB-19 CNS; 0.696 µM with RPMI-8226 leukemia; 2.77 µM in the experiment with NCI-H460 lung; 1.26 µM in the experiment on RXF 393 renal; 3.54 µM in the experiment with HS 578T breast. Further, the GI50 was 1.92 µM in the experiment with MOLT-4 leukemia, 1.92 µM in the experiment with MALME-3M melanoma and 2.37 µM in the experiment with NCI/ADR-RES ovarian. The TGI in the experiment on SF-539 CNS was 2.7 µM; in the experiment with SNB-19 CNS it was 13 µM; with RPMI-8226 leukemia, 4.22 µM; with NCI-H460 lung, 10.1 µM; in the experiment with RXF 393 renal, 2.7 µM; in the experiment on HS 578T breast, 35.7 µM. Moreover, the TGI was 5.98 µM in the experiment with MOLT-4 leukemia, 3.64 µM with MALME-3M melanoma and 12.3 µM with NCI/ADR-RES ovarian.
